This is an account of results in article PMC5878090 (Journal of controlled release : official journal of the …, 2015).

For one test, the target named is Integrin αvβ3 (UniProt P06756). The test is described as follows: SPR.
The subject of test [1] is U87MG subcutaneous xenografts. The test is described as follows: Anti-glioblastoma study in subcutaneous U87MG tumor model. The class given is in vivo, Balb/c nude mice. Particulars: 50 mg/kg oral every 2 days until 9th day, n = 8; saline 8.3-fold.
Test [2] deals with U87MG cells. The test is described as follows: Cell-cycle analysis. The class given is cell-based, human. Particulars: 10 µM, 24 h, PI labeling.
The test system of test [3] is U87MG cells. The test is described as follows: Anti-proliferation assay. The class given is cell-based. The conditions noted are these: Homo sapiens, U-87 MG, 72 h, read-out: anti-proliferation IC50.

Broadly, the Kd is a measure of binding affinity in units of concentration. A higher Kd goes with a looser complex. “c(RGDyK)-conjugated poly(ethylene glycol)-block-poly(lactic acid) micelle carrying the sPMI peptide” had a Kd with Integrin αvβ3 of 4.05 µM.

With `Cn1nnc2c(C(N)=O)ncn2c1=O` [TMZ, temozolomide], in test [1], the “tumor size fold increase on day 14 versus start of treatment” value was 0.3 fold.

In the case of `COc1ccc(C2=N[C@@H](c3ccc(Cl)cc3)[C@@H](c3ccc(Cl)cc3)N2C(=O)N2CCNC(=O)C2)c(OC(C)C)c1` [Nutlin-3], the cell-cycle arrest result with U87MG cells [2] was “effective cell-cycle arrest in the G1 and G2 phases”. Besides, the IC50 with U87MG cells [3] was 7.6 µM.
